Key:
[1] = system: cancer cell lines (Malme3M, SNU1, MDAMB231, MOLT4, TCCSUP, Hep3B); experiment: Mycolactone-induced cancer cell death under light microscope; type: cell-based; settings: mycolactone final 1 μg/ml, 72 hours, compared to not-treated
Method: Cancer cell lines used for the experiment was as follows; 2 skin cancer cell lines (Malme3M and SK-Mel-24), 1 breast cancer cell line (MDAMB231), 1 leukemia cell line (MOLT4), 1 stomach cancer cell line (SNU1); 1 bladder cancer cell line (TCCSUP), 8 hepatoma cell lines (SK-Hep1, Hep3B, SNU182, SNU387, SNU398, SNU449, SNU475, and HepG2), 2 colon cancer cell lines (HT-29 and DLD-1), and 1 oral cavity cancer cell line (SCC-15). Cancer cells were cultured in RPMI1640 media containing 10% fetal bovine serum, penicillin (10 unit/ml), and streptomycin (100 μg/ml) in 75 cm^2 flask at 37° C. in the presence of 5% CO2.
After cultivation of cancer cells ([…]) in 6-well plate for 24 hours, mycolactone (final 1 μg/ml) was added and the cell morphology was observed after 72 hours under light microscope. Cancer cells became round up and died after mycolactone treatment.
FIGS. (1a to 1f) show the results in skin cancer (Malme3M), stomach cancer (SNU1), breast cancer (MDAMB231), leukemia (MOLT4), bladder cancer (TCCSUP), and hepatoma (Hep3B). The morphological change of colon and oral cavity cancers is not shown.

Hep3B cancer cells = experiment: Morphological change by transmission electron microscopy; type: cell-based, human; settings: mycolactone 1 μg/ml, 24 hours
Method: Morphological change of Hep3B cancer cells was observed by transmission electron microscopy (hereinafter, TEM) Cancer cells (5×10^6) were cultured and treated with mycolactone (1 μg/ml). Cell were collected after 24 hours and fixed with 2.5% glutaraldehyde. The sample was treated with OsO4, dehydrated with ethanol, and embedded to […].

[2] = system: CPP32 caspase and poly-ADP-ribose polymerase in Hep3B cancer cells; experiment: Western blot of CPP32 caspase activation and poly-ADP-ribose polymerase cleavage; type: cell-based, human; settings: mycolactone final 1 μg/ml
Method: CPP32 caspase activation and following cleavage of poly-ADP-ribose polymerase, typical biochemical phenomena of apoptosis, were examined by Western-blotting. Hep3B cancer cells (5×10^6) were cultured and treated with mycolactone (final 1 μg/ml). Cells were collected after 2, 4, 8, 12, 24, or 48 hours and Western blot was performed with anti-CPP32 antibody (Oncogene, Mass., USA) or anti-poly-ADP-ribose polymerase antibody (Enzyme Systems Products, CA, USA). Protein preparation was performed as follows. Cells were suspended in 400 μl of lysis buffer (125 mM Tris-HCl [pH 6.8], 20% glycerol, 2% SDS, and 10% β-mercaptoethanol), vortexed for 30 seconds, and kept at 95° C. for 5 minutes Cell lysates were separated on a 10% SDS-polyacrylamide gel and transferred to nitrocellulose membrane. Antibody reaction was performed with the antibodies describe above. CPP32 caspase activation was started at 4 hours and maintained until 24 hours, while the cleavage of poly-ADP-ribose polymerase was started at 8 hours after mycolactone treatment. […] Pro-CPP32 and Active CPP32 as shown on left are CPP32 caspase (the caspase 3) before and after activation, respectively; PARP is poly-ADP-ribose polymerase; cleaved PARP is cleaved poly-ADP-ribose polymerase.

[3] = system: bcl-2 family genes in Hep3B cells; experiment: Ribonuclease protection assay (RPA) of bcl-2 family gene mRNA; type: cell-based, human
Method: To find target genes of mycolactone, mRNA transcription levels of bcl-2 family genes were examined. Total RNA was prepared from mycolactone-treated Hep3B cells and the expression of 7 genes belonging to bcl-2 family by ribonuclease protection assay (RPA). Total RNA was prepared with RNeasy minikit (Qiagen Inc., Chatsworth, Calif.) as described below. Mycolactone treated cancer cells were collected and washed with PBS. Cells were suspended in lysis buffer containing β-mercaptoethanol. Cells were passed through a 20-G syringe for more than 5 times. Equal volume of 70% ethanol was added and the suspension was mixed well. The suspension was applied to RNeasy mini spin column. The column was centrifuged at 10,000 rpm for 15 seconds and washed 2 times with washing buffer plus PRE buffer. RNA attached to the column was eluted with RNase-free distilled water. RNA was stored at −70° C. before use.
The mRNA expression profile of bcl-2 family genes was examined by RPA using multi-probe RNase Protection Assay System (PharMingen, CA, USA) with the following procedures. Specific RNA probe labeled with radioisotope is synthesized and used for hybridization with the RNA prepared from each sample. After removal of single-stranded RNA that is not hybridized with the probe and the residual riboprobe, the sample is electrophoresed on a denaturing polyacrylamide gel. After autoradiography, the mRNA expression was analyzed through measuring the density of hybridized bands.
RPA is a 3-Step Procedure
1). Synthesis of probe: Probe is synthesized by incubating transcription mixture solution ([…], 1 μl GACU pool, 2 μl DTT, 4 μl 5× transcription buffer, 1 μl RPA template set, 1 μlA T7 polymerase) at 37° C. for 1 hour. The reaction was stopped by adding 2 μl of DNase. Probe synthesis was completed by phenol treatment and ethanol precipitation The precipitated probe was dissolved in 50 μl of hybridization buffer.
2) RNA preparation and hybridization: Total RNA prepared (10-20 μg) was kept at −70° C. for 15 minutes and dried completely in vacuum evaporator. Hybridization was performed by the following reactions; addition of 8 μl of hybridization buffer, vortexing and brief centrifuge; addition and mixing of 2 μl of probe diluted at about 3×10^5 cpm/μl; addition of mineral oil. Hybridization mixture was kept briefly at 90° C., then incubated at 56° C. for 12 to 16 hours. Hybridization was completed by incubating the mixture at 37° C. for 15 minutes.
3) RNase treatment, electrophoresis, and autoradiography: RNase mixture (100 μl) was added to the hybridization mixture and the non-hybridized RNA was removed by incubating at 30° C. for 45 minutes. RNase digestion was terminated by adding proteinase K mixture solution. After phenol treatment and ethanol precipitation, the sample was dried. The sample was nixed with 5 μl of 1× loading buffer, heated at 90° C. for 3-minutes, kept on ice, electrophoresed ort a denaturing polyacrylamide gel, dried, and exposed to X-ray film.

[4] = system: Hep3B human hepatoma cells transplanted to nude mice; experiment: In vivo anticancer effect in nude mice
Method: Hep3B human hepatoma cells were transplanted to nude mice and tumor growth was induced for 2 to 3 weeks. Then, mycolactone was injected to the tumor tissue by 4-3 days method, that is, injection for 4 days and rest for 3 days. PBS solution (50 μl) with or without mycolactone (20 μg) was injected to tumor of treatment (T) or control (C) mouse, respectively. The tumor volume was estimated by measuring both long and short diameters. The tumor volume at the day of first injection was 101.3 mm^3 (C) or 105.9 mm^3 (T).

[5] = system: HUVEC (Human umbilical vein endothelial cell); experiment: Tube formation assay (In Vitro Angiogenesis Assay Kit); type: cell-based
Method: HUVEC (Human umbilical vein endothelial cell, American Type Culture Collection, Manassas, Va.) cells were maintained in HAM's F-12K nutrient mixture (Sigma, St. Louis, Mo.) with 10% fetal bovine serum and endothelial cell growth supplement (Sigma, St. Louis, Mo.). Cells were plated onto a 1% gelatinized plastic surface and incubated in the presence of 5% CO2 at 37° C. Tube formation assay was performed using an In Vitro Angiogenesis Assay Kit. (Chemicon, Temecula, Calif.) with following procedures. A 50 μl of the Diluent Buffer-ECMatrix solution mixture was transferred to 96-well tissue culture plate and kept at 37° C. for 1 hour for solidification of the matrix solution. HUVEC cells were seeded onto the surface of the polymerized ECMatrix in each well and incubated in the presence of ethanol (control) or mycolactone (containing 1% of ethanol).

murine L929 cell line = settings: cited from earlier work
murine J779 cell line = settings: cited from earlier work
[6] = system: Rb protein in SNU475 (Rb-positive cancer cell line); experiment: Western blot of Rb protein expression after oligonucleotide transfection; type: cell-based, human; settings: SNU475 transfected with 1 uM oligonucleotide, compared to sense Rb oligonucleotide transfectants
Method: An Rb-positive cancer cell SNU475 was cultured overnight in 6-well plate (5×10^6 cancer cells per well) with RPMI1640 medium. Sense or antisense Rb oligonucleotide, as described in Example 4, was transfected to the cultured cancer cells using Lipofectamine-PLUS (Gibco BRL, Grand Island, N.Y.) with the following procedures. Sense or antisense Rb oligonucleotide was diluted (final 1 uM) in fetal bovine serum-free RPMI1640 medium. PLUS reagent (Gibco BRL, NY, USA) was added, mixed well, and incubated at room temperature for 15 minutes. During this incubation, Lipofectamine was diluted in fetal bovine serum-fee RPMI1640 medium in separate test tubes. After 15 minutes, 2 solutions were mixed well and incubated at room temperature for 30 minutes for induction of oligonucleotide-Lipofectamine complex formation. During this incubation, the medium in overnight culture of the cancer cells was changed with fresh fetal bovine serum-free RPMI1640 medium. The solution containing oligonucleotide-Lipofectamine complex was carefully dropped on each culture plate and incubated at 37° C. for 3 hours. […]
Nuclear protein fraction was prepared to examine the Rb expression in SNU475 cell line transfected with sense or antisense Rb oligonucleotide by Western blotting. […] The protein concentration in the supernatant was determined and used for Western blotting. […]

In the case of CC(=C\C=C\C(C)=C\[C@H](O)[C@@H](O)C[C@H](C)O)/C=C(C)/C=C/C(=O)O[C@H]1CCCC(=O)O[C@@H]([C@@H](C)C/C(C)=C/[C@@H](C)[C@H](O)C[C@@H](C)O)C/C=C(\C)C[C@@H]1C [mycolactone], the “cancer cell death, cell morphology under light microscope” value [1] was “Significant cell death”, the “morphology by TEM” value (Hep3B cancer cells) was “typical apoptosis morphologies” and the “CPP32 caspase activation maintained until” value [2] was 24 h. The “CPP32 caspase activation started at” value [2] was 4 h, the “cleavage of poly-ADP-ribose polymerase started at” value [2] was 8 h and the “cleavage of poly-ADP-ribose polymerase” value ([2]; after 48 hours) was “completely cleaved”. For the same compound, the “mRNA expression of bcl-2” value [3] was “very low mRNA expression without significant change”, the “mRNA expression of bcl-w” value [3] was “No change” and the “mRNA expression of mcl-1” value ([3]; after 4 hours, maintained until 24 hours) was “decreased slowly”. For the same compound, the “mRNA expression of mcl-1” value ([3]; at 2 hour) was “increased transiently”, the “mRNA expression of bcl-XL” value ([3]; starting at 8 hours until 24 hours) was “decrease” and the “mRNA expression of pro-apoptotic genes (bad, bak, and bax)” value ([3]; until 24 hours after treatment) was “no change”. The “tumor tissue inside the body at sacrifice” value ([4]; day 45, T mouse) was “not to have any tumor tissue”, the “tumor, treated (T) versus control (C) mouse” value ([4]; first week, 20 μg injected into tumor, 4 days on, 3 days rest) was “no significant difference” and the tumor ([4]; fourth week, T mouse, 20 μg injected into tumor) was “disappeared”. For the same compound, the tumor volume ([4]; second week, T mouse, 20 μg injected into tumor, 105.9 mm^3 at first injection) was 63.8 mm^3, the tumor volume ([4]; third week, T mouse, 20 μg injected into tumor) was 20.8 mm^3 and the “condition of the treated mouse” value ([4]; until the day 45, T mouse) was “healthy”. The “inhibition of tube formation maintained until” value ([5]; mycolactone 1 μg) was 7.5 h, the tube formation ([5]; mycolactone 1 μg, after 4 hour) was “inhibited” and the tube formation ([5]; mycolactone 5 μg, after 4 hours) was “almost completely inhibited”. The “cell death with prolonged treatment” value (murine L929 cell line; L929, prolonged treatment) was “apoptosis”, the cytopathic effects (murine L929 cell line; L929) was “detaching of cells from culture plates and cell rounding-up” and the “time to G1 cell cycle arrest” value (murine L929 cell line; L929) was at most 48 h. The “cell death with prolonged treatment” value (murine J779 cell line; J779, prolonged treatment) was “apoptosis” and the “time to G1 cell cycle arrest” value (murine J779 cell line; J779) was at most 48 h.
In the case of “antisense Rb oligonucleotide: phosphorothioate-backbone antisense oligonucleotide targeting the protein initiation codon region of human Rb mRNA (antisense GGGTTTTGGGCGGCATGA; all phosphorothioate, sugars by position and methylation of C not given here)”, the Rb protein expression [6] was “Significant time-dependent decrease”.

From US20040048823A1 (priority 2000, published 2004)
